A word on the DC50: it is the concentration giving 50% degradation. One may read the Dmax as the largest share of the target that was removed.

Results on ten compounds are retold here after patent US11957759B1, “Rapidly accelerated fibrosarcoma (RAF) degrading compounds and associated methods of use” (Arvinas Operations, Inc., priority 2022, dated 2024).

For one experiment, the target named is T1, B-RAF V600E (Homo sapiens, UniProt P15056, V600E).
T1 construct: expressed in transfected cells; host or cells: T-Rex 293 cells (Invitrogen #R71007)
The experiment in a line: Target protein degradation, assay C: T-Rex 293 cells, HA-BRAF_V600E, 384 well format. Format: cell-based. The conditions noted are these: T-Rex 293 HA-BRAF_V600E cells, 24 hours, Examples 83-269; for DC50: Assay C; for Dmax: T-REx-293, Assay C. Summed up: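 T-Rex 293 cells stably expressing doxycycline-induced (1 ng/mL) HA-BRAF V600E were treated 24 h at 37 °C with compound (300 nM–5 pM, 11 points, 0.5% DMSO). HA immunofluorescence was quantified by high-content imaging to give DC50 and Dmax (% of control); nuclei counts versus DMSO gauged toxicity.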

Another experiment concerns the target T2, B-RAF G466V (Homo sapiens, UniProt P15056, G466V).
T2 construct: expressed in transfected cells; host or cells: T-Rex 293 cells (Invitrogen #R71007)
Kind of experiment: Target protein degradation, assay D: T-Rex 293 cells, HA-BRAF_G466V, 384 well format. Format: cell-based. The conditions noted are these: T-Rex 293 HA-BRAF_G466V cells, 24 hours, Examples 83-269; for Dmax: T-REx-293, Assay D. The gist of the method:
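T-Rex 293 cells stably expressing doxycycline-induced (1 ng/mL) HA-BRAF G466V treated 24 h at 37 °C with PROTACs, 11-point 1:3 dilution, 300 nM to 5 pM final, 0.5% DMSO. Fixed cells immunostained for HA and imaged by high-content microscopy; DC50 and Dmax (% of control) derived, toxicity from nuclei counts versus DMSO.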

T1 sequence (P15056 whole entry V600E): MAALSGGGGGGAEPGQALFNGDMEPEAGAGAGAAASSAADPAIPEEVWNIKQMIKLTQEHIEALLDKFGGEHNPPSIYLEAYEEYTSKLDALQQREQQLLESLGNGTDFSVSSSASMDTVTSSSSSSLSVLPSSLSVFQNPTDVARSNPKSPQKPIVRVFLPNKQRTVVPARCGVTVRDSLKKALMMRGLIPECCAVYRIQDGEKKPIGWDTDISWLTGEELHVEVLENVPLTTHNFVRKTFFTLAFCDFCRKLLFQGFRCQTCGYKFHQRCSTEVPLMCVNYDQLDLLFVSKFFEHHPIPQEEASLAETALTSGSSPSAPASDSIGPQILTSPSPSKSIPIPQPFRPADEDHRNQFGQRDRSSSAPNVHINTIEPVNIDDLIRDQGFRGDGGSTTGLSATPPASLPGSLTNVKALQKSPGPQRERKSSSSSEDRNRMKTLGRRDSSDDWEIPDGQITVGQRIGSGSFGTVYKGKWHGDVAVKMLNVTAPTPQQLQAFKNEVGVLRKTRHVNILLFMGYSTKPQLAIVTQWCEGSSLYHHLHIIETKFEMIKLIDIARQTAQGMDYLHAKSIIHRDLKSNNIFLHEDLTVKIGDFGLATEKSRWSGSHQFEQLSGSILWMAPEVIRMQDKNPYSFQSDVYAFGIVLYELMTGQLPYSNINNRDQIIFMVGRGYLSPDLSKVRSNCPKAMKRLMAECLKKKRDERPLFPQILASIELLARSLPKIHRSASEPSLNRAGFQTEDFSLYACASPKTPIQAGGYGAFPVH
T2 sequence (P15056 whole entry G466V): as the sequence (P15056 whole entry V600E) above, with G466V, E600V counted along it

At B-RAF V600E, `N#Cc1c(NS(=O)(=O)N2CC[C@@H](F)C2)ccc(F)c1Oc1ccc2ncn(-c3ccc(NC4CCN(c5ccc6c(c5)C(=O)N(C5CCC(=O)NC5=O)C6=O)CC4)nc3)c(=O)c2c1` (stereo partly drawn) [Example 157, (3R)-N-[2-cyano-3-({3-[6-({1-[2-(2,6-dioxopiperidin-3-yl)-1,3-dioxo-2,3-dihydro-1H-isoindol-5-yl]piperidin-4-yl}amino)pyridin-3-yl]-4-oxo-3,4-dihydroquinazolin-6-yl}oxy)-4-fluorophenyl]-3-fluoropyrrolidine-1-sulfonamide] yielded a DC50 of 0.05 to 0.5 µM and a Dmax of 35 to 70%. The same compound registered a DC50 at B-RAF G466V (Assay D) above 0.03 µM.

For the compound `N#Cc1c(NS(=O)(=O)N2CC[C@@H](F)C2)ccc(F)c1Oc1ccc2ncn(-c3ccc(N4CC(C5CN(c6ccc7c(c6)C(=O)N(C6CCC(=O)NC6=O)C7=O)C5)C4)nc3)c(=O)c2c1` (stereo partly drawn) [Example 158, (3R)-N-(2-cyano-3-{[3-(6-{1'-[2-(2,6-dioxopiperidin-3-yl)-1,3-dioxo-2,3-dihydro-1H-isoindol-5-yl]-[3,3'-biazetidin]-1-yl}pyridin-3-yl)-4-oxo-3,4-dihydroquinazolin-6-yl]oxy}-4-fluorophenyl)-3-fluoropyrrolidine-1-sulfonamide], the DC50 at B-RAF V600E is 0.05 to 0.5 µM; on B-RAF G466V (Assay D), at most 0.001 µM. Besides, the Dmax at B-RAF V600E and on B-RAF G466V was at most 35% throughout.

As for `N#Cc1c(NS(=O)(=O)N2CC[C@@H](F)C2)ccc(F)c1Oc1ccc2ncn(-c3ccc(N4CC(CC5CN(c6ccc7c(c6)C(=O)N(C6CCC(=O)NC6=O)C7=O)C5)C4)nc3)c(=O)c2c1` (stereo partly drawn) [Example 159, (3R)-N-{2-cyano-3-[(3-{6-[3-({1-[2-(2,6-dioxopiperidin-3-yl)-1,3-dioxo-2,3-dihydro-1H-isoindol-5-yl]azetidin-3-yl}methyl)azetidin-1-yl]pyridin-3-yl}-4-oxo-3,4-dihydroquinazolin-6-yl)oxy]-4-fluorophenyl}-3-fluoropyrrolidine-1-sulfonamide], the DC50 on B-RAF V600E lay in the range of 0.05 to 0.5 µM; at B-RAF G466V (Assay D), 0.001 to 0.01 µM. For the same compound, the Dmax at B-RAF V600E is 35 to 70%; at B-RAF G466V it was at most 35%.

Consider `N#Cc1c(NS(=O)(=O)N2CC[C@@H](F)C2)ccc(F)c1Oc1ccc2ncn(-c3ccc(N4CCC(CC5CCCN5c5ccc6c(c5)C(=O)N(C5CCC(=O)NC5=O)C6=O)CC4)nc3)c(=O)c2c1` (stereo partly drawn) [Example 160, (3R)-N-{2-cyano-3-[(3-{6-[4-({1-[2-(2,6-dioxopiperidin-3-yl)-1,3-dioxo-2,3-dihydro-1H-isoindol-5-yl]pyrrolidin-2-yl}methyl)piperidin-1-yl]pyridin-3-yl}-4-oxo-3,4-dihydroquinazolin-6-yl)oxy]-4-fluorophenyl}-3-fluoropyrrolidine-1-sulfonamide], for which, at B-RAF V600E, the DC50 fell in the range of 0.05 to 0.5 µM and the Dmax was at most 35%. At B-RAF G466V (Assay D), this compound yielded a DC50 above 0.03 µM.

As to `N#Cc1c(NS(=O)(=O)N2CC[C@@H](F)C2)ccc(F)c1Oc1ccc2ncn(-c3ccc(N4CCN(c5ccc6c(c5)C(=O)N(C5CCC(=O)NC5=O)C6=O)CC4)nc3)c(=O)c2c1` (stereo partly drawn) [Example 161, (3R)-N-(2-cyano-3-{[3-(6-{4-[2-(2,6-dioxopiperidin-3-yl)-1,3-dioxo-2,3-dihydro-1H-isoindol-5-yl]piperazin-1-yl}pyridin-3-yl)-4-oxo-3,4-dihydroquinazolin-6-yl]oxy}-4-fluorophenyl)-3-fluoropyrrolidine-1-sulfonamide], the DC50 at B-RAF V600E is 0.05 to 0.5 µM; at B-RAF G466V (Assay D), 0.001 to 0.01 µM. The results for the greatest degradation seen (Dmax) at B-RAF V600E and on B-RAF G466V were 35 to 70% and at most 35%, respectively.

For the compound `N#Cc1c(NS(=O)(=O)N2CC[C@@H](F)C2)ccc(F)c1Oc1ccc2ncn(-c3ccc(N4CCN(c5ccc(C(=O)NC6CCC(=O)NC6=O)c(F)c5)CC4)nc3)c(=O)c2c1` (stereo partly drawn) [Example 162, 4-[4-(5-{6-[2-cyano-6-fluoro-3-({[(3R)-3-fluoropyrrolidin-1-yl]sulfonyl}amino)phenoxy]-4-oxo-3,4-dihydroquinazolin-3-yl}pyridin-2-yl)piperazin-1-yl]-N-(2,6-dioxopiperidin-3-yl)-2-fluorobenzamide], the DC50 at B-RAF V600E is 0.005 to 0.05 µM; at B-RAF G466V (Assay D) it was at most 0.001 µM. Further, the results for the Dmax at B-RAF V600E and on B-RAF G466V were 35 to 70% and at most 35%, respectively.

On to `N#Cc1c(NS(=O)(=O)N2CC[C@@H](F)C2)ccc(F)c1Oc1ccc2ncn(-c3ccc(N4CCC(CCN5CCN(c6ccc7c(c6)C(=O)N(C6CCC(=O)NC6=O)C7=O)CC5)CC4)nc3)c(=O)c2c1` (stereo partly drawn) [Example 163, (3R)-N-{2-cyano-3-[(3-{6-[4-(2-{4-[2-(2,6-dioxopiperidin-3-yl)-1,3-dioxo-2,3-dihydro-1H-isoindol-5-yl]piperazin-1-yl}ethyl)piperidin-1-yl]pyridin-3-yl}-4-oxo-3,4-dihydroquinazolin-6-yl)oxy]-4-fluorophenyl}-3-fluoropyrrolidine-1-sulfonamide], for which the half-maximal degradation concentration (DC50) on B-RAF V600E is 0.05 to 0.5 µM; on B-RAF G466V (Assay D), 0.01 to 0.03 µM. Also, the Dmax at B-RAF V600E was 35 to 70%; at B-RAF G466V, at most 35%.

For the compound `N#Cc1c(NS(=O)(=O)N2CC[C@@H](F)C2)ccc(F)c1Oc1ccc2ncn(-c3ccc(N4CCN(CCCOc5ccc6c(c5)C(=O)N(C5CCC(=O)NC5=O)C6=O)CC4)nc3)c(=O)c2c1` (stereo partly drawn) [Example 164, (3R)-N-{2-cyano-3-[(3-{6-[4-(3-{[2-(2,6-dioxopiperidin-3-yl)-1,3-dioxo-2,3-dihydro-1H-isoindol-5-yl]oxy}propyl)piperazin--1-yl]pyridin-3-yl}-4-oxo-3,4-dihydroquinazolin-6-yl)oxy]-4-fluorophenyl}-3-fluoropyrrolidine-1-sulfonamide], the half-maximal degradation concentration (DC50) is 0.05 to 0.5 µM on B-RAF V600E and at most 0.001 µM at B-RAF G466V (Assay D). In addition, the results for the Dmax on B-RAF V600E and at B-RAF G466V were 35 to 70% and at most 35%, respectively.

As for `N#Cc1c(NS(=O)(=O)N2CC[C@@H](F)C2)ccc(F)c1Oc1ccc2ncn(-c3ccc(N4CCC5(CC4)CN(c4cccc6c4CN(C4CCC(=O)NC4=O)C6=O)C5)nc3)c(=O)c2c1` (stereo partly drawn) [Example 165, (3R)-N-(2-cyano-3-{[3-(6-{2-[2-(2,6-dioxopiperidin-3-yl)-1-oxo-2,3-dihydro-1H-isoindol-4-yl]-2,7-diazaspiro[3.5]nonan-7-yl}pyridin-3-yl)-4-oxo-3,4-dihydroquinazolin-6-yl]oxy}-4-fluorophenyl)-3-fluoropyrrolidine-1-sulfonamide], the DC50 on B-RAF V600E was at most 0.005 µM; at B-RAF G466V (Assay D), above 0.03 µM. For the same compound, the Dmax on B-RAF V600E and at B-RAF G466V was at most 35% in each case.

Take `CN(CC1CCN(c2ccc(-n3cnc4ccc(Oc5c(F)ccc(NS(=O)(=O)N6CC[C@@H](F)C6)c5C#N)cc4c3=O)cn2)CC1)[C@H]1C[C@H](Oc2ccc3c(c2)C(=O)N([C@@H]2CCC(=O)NC2=O)C3=O)C1` [Example 166, (3R)-N-{2-cyano-4-fluoro-3-[(3-{6-[4-({methyl[(1r,3r)-3-{[2-(2,6-dioxopiperidin-3-yl)-1,3-dioxo-2,3-dihydro-1H-isoindol-5-yl]oxy}cyclobutyl]amino}methyl)piperidin-1-yl]pyridin-3-yl}-4-oxo-3,4-dihydroquinazolin-6-yl)oxy]phenyl}-3-fluoropyrrolidine-1-sulfonamide]: the DC50 was above 0.5 µM at B-RAF V600E and 0.001 to 0.01 µM on B-RAF G466V (Assay D). Besides, the “B-RAF G466V DMax (%)” value on B-RAF G466V (Assay D) was “C (C ≤ 35)”.
